“Also recorded” adds a separate entry of the source. Read-outs that look alike come from different tables or passages of the source.
Tests used:
S. aureus NRS70 = assay: MIC, broth microdilution, S. aureus NRS70; type: cell-based, Staphylococcus aureus; settings: for MIC: Staphylococcus aureus
Method: (§1) MICs were evaluated following the CLSI microdilution method in BBL™ Mueller-Hinton II broth (Wikler et al., Clinical Laboratory Standards Institute Document M7-A7, 29 (2009)). Briefly, two-fold serial dilutions of compound were prepared in triplicate in 96-well plates and inoculated with 5×10^5 cfu/mL of the bacterial suspension. Plates were incubated at 37° C. for 16-20 hours.

S. aureus NRS100 = assay: MIC, CLSI broth microdilution, S. aureus NRS100; type: cell-based, Staphylococcus aureus
Method: as §1

[1] = tested on: S. epidermidis ATCC 35547; assay: MIC, CLSI broth microdilution, S. epidermidis ATCC 35547; type: cell-based
Method: as §1

[2] = tested on: S. haemolyticus ATCC 29970; assay: MIC, CLSI broth microdilution, S. haemolyticus ATCC 29970; type: cell-based
Method: as §1

in vivo = settings: mouse, in vivo
Method: We conducted first fast PK studies (n=2 mice per time point, 5 time points) dosing the compounds iv, followed by full PK studies for selected compounds (n=3 mice per time point, 10-12 time points per route of administration, iv and po).
A single dose of compound 2 was administered to mice (n=3 per time point) by tail vein injection or by oral gavage at 10 mg/kg. Blood was collected by cardiac puncture in heparinized syringes at 2, 5, 20, and 40 min and at 1, 2, 3, 4, 8, 18, and 24 h after iv dosing and at 0.5, 1, 2, 3, 4, 6, 9, 24, and 30 h after po dosing. Blood was centrifuged to obtain plasma. A 50-μL aliquot of plasma was mixed with 100 μL of acetonitrile containing internal standard (5 μM final concentration), followed by centrifugation at 20,000 g for 15 min. The supernatant was analyzed by reverse-phase UPLC. PK parameters were calculated as described in the Plasma protein binding and Pharmacokinetics sections below (see also Gooyit et al. J. Med. Chem. 54, 6676-6690 (2011)).
The area under the concentration-time curve up to the last quantifiable sampling time (AUC0-last) was calculated by the trapezoidal rule. AUC0-∞ was calculated as AUC0-last+(Clast/k), where Clast is the concentration at the last quantifiable sampling time and k is the elimination rate constant. The concentration at time=0 (C0) was estimated from the first sampling times by back-extrapolation using log-linear regression analysis. Half-lives (t1/2α and t1/2β) were estimated from the linear portion of the initial or terminal concentration-time data by linear regression, where the slope of the line was the rate constant k and t1/2α=ln 2/k. Volume of distribution (Vd) was calculated as the dose divided by the initial concentration (C0). Clearance (CL) was calculated from the dose divided by AUC0-∞. Oral bioavailability (F) was calculated by dividing the AUCpo by the AUCiv, as equivalent iv and po doses were administered.

HepG2 cells = assay: cells; settings: Homo sapiens, HepG2, 16 h, read-out: IC50, XTT cell proliferation assay
Method: HepG2 cells (ATCC HB-8065) were maintained in monolayer culture at 37° C. and 5% CO2 in Dulbecco's Modified Eagle's Medium supplemented with 10% fetal bovine serum, non-essential amino acids, 2 mM L-glutamine, and 1% penicillin-streptomycin. […] The cells were washed with Dulbecco's PBS twice, 150 μL of XTT working solution was added to each well, followed by 3-h incubation. Absorbance at 475 nm (test wavelength) and 660 nm (reference wavelength) was read with a microplate reader. Experiments were performed in triplicate and repeated twice. IC50 values were calculated using GraphPad prism 5.

[3] = Plasma protein binding, rapid equilibrium dialysis, human; type: in vitro ADME; settings: humans, 10 μM, 6 h dialysis
Method: Aliquots from both chambers were quenched with 1:2 v/v acetonitrile containing an internal standard. The samples were concentrated to dryness on a miVac concentrator and the residue resuspended in 50:50 acetonitrile/water. Samples were analyzed by reverse-phase ultraperformance liquid chromatography (UPLC) with UV/Vis detection. Plasma protein binding of quinazolinone 2 was 98.0±0.04% in mice and 96.5±0.70% in humans.

T7 transcription = assay: In vitro transcription assay (TranscriptAid T7 kit); type: biochemical
Source text: (§2) For in vitro translation, the E. coli S30 Extract System for Circular DNA was used to set up the reactions using plasmid pCP19 containing the lacZ gene for β-galactosidase. Reaction mixtures were supplemented with two-fold dilutions of antibiotic 2 and the β-Galactosidase Enzyme Assay System with Reporter Lysis Buffer was used to quantify the amount of β-galactosidase translated by measuring absorbance at 420 nm. For in vitro transcription, a TranscriptAid T7 High Yield Transcription kit was used with a pET24a/dacB DNA construct under the T7 promoter. The purified plasmid was linearized using the restriction endonuclease XhoI and then purified according to the manufacturer's instructions. A series of samples were prepared and supplemented with two-fold dilutions of antibiotic 2. Samples were analyzed by running on a denaturing 1% formaldehyde agarose gel and stained with ethidium bromide to visualize RNA. Intensities of the bands were quantified and compared to the control to determine the amount of transcription occurring in the presence of 2.

[4] = tested on: E. coli S30 extract system; assay: In vitro translation assay (E. coli S30 extract, β-galactosidase); type: biochemical; settings: up to 64 μg/mL
Source text: as §2

Compound: N#Cc1ccc(/C=C/c2nc3ccccc3c(=O)n2-c2cccc(C(=O)O)c2)cc1.[Na] [Compound 2, Sodium (E)-3-(3-carboxyphenyl)-2-(4-cyanostyryl)quinazolin-4(3H)-one]
- MIC (S. aureus NRS70; NRS70): 2 µg/mL
- MIC (S. aureus NRS70; NRS70, read-out: MIC NRS70): 4 µg/mL
- In vitro AB activity (MIC) (S. aureus NRS70; Table 2.1, S. aureus NRS70): 2 µg/mL
- MIC (S. aureus NRS100; Staphylococcus aureus, NRS100): 16 µg/mL
- In vitro AB activity (MIC) (S. aureus NRS100; Table 2.1, S. aureus NRS100): 16 µg/mL
- MIC ([1]; Staphylococcus epidermidis, ATCC35547): 1 µg/mL
- In vitro AB activity (MIC) ([1]; Table 2.1, S. epidermidis ATCC 35547): 1 µg/mL
- MIC ([2]; Staphylococcus haemolyticus, ATCC29970): 1 µg/mL
- In vitro AB activity (MIC) ([2]; Table 2.1, S. haemolyticus ATCC 29970): 1 µg/mL
- clearance (in vivo; ICR, iv, 10 mg/kg): 7.1 mL/min/kg
- concentration at 24 h (in vivo; ICR, iv, 10 mg/kg): 142 ± 53 ng/mL
- t1/2elimination (in vivo; ICR, iv, 10 mg/kg): 22 h
- half-life (in vivo; ICR, po, 10 mg/kg): 58 h
- AUC (in vivo; female, ICR, iv): 23500 ng·h/mL
- clearance (in vivo; female, ICR, iv): 7.1 mL/min/kg
- Vd (in vivo; female, ICR, iv, 10 mg/kg): 0.0076 L
- half-life (in vivo; female, ICR, iv, 10 mg/kg): 22 h
- AUC (in vivo; female, ICR, po, 10 mg/kg): 15500 ng·h/mL
- bioavailability (in vivo; female, ICR, po, 10 mg/kg, F (oral bioavailability)): 66%
- bioavailability (in vivo; 10 mg/kg, F (absolute oral bioavailability)): 66%
- AUC(0-inf) (in vivo; iv, 10 mg/kg): 23500 ng·h/mL
- AUC(0-t) (in vivo; iv, 10 mg/kg): 19700 ng·h/mL
- C0 (in vivo; iv, 10 mg/kg): 33000 ng/mL
- Clearance as share of hepatic blood flow in mice (in vivo; iv, 10 mg/kg): less than 10%
- Distribution t1/2α (in vivo; iv, 10 mg/kg): 0.243 h
- Vd (in vivo; iv, 10 mg/kg): 0.303 L/kg
- Volume of distribution (in vivo; iv, 10 mg/kg): 0.3 L/kg
- clearance (in vivo; iv, 10 mg/kg): 7.07 mL/min/kg
- concentration at 24 h (in vivo; iv, 10 mg/kg): 142 ± 53 ng/mL
- t1/2distribution (in vivo; iv, 10 mg/kg): 0.242 h
- t1/2elimination (in vivo; iv, 10 mg/kg): 22.3 h
- Plasma level at 24 hours (in vivo; iv, 10 mg/kg, 24 h): 142 ± 53 ng/mL
- AUC(0-inf) (in vivo; po, 10 mg/kg): 15500 ng·h/mL
- AUC(0-t) (in vivo; po, 10 mg/kg): 6550 ng·h/mL
- Cmax (in vivo; po, 10 mg/kg): 1290 ng/mL
- Time of maximum concentration (in vivo; po, 10 mg/kg): 1 h
- half-life (in vivo; po, 10 mg/kg): 58.2 h
- t1/2distribution (in vivo; po, 10 mg/kg): 2.06 h
- IC50 (HepG2 cells): 63 ± 1 µg/mL
- Plasma protein binding [3]: 96.5±0.70%
- Inhibition of in vitro transcription (T7 transcription): did not show any inhibition
- Inhibition of in vitro translation [4]: did not show any inhibition; also recorded: No inhibition

— patent publication US10329262B2, “Quinazolinone antibiotics” (priority 2013, dated 2019)
